Test results reported in patent publication US9604964B2, “Dihydropyrazole GPR40 modulators” (BRISTOL-MYERS SQUIBB COMPANY, priority 2012, dated 2017).

How the values were obtained:
human GPR40 [1] = target: T1, human GPR40 (Homo sapiens, UniProt O14842); assay: FDSS-based intracellular calcium assay (Human GPR40 in vitro assay); type: cell-based; design: 3xFLAG; expressed in transfected cells; conditions: intracellular Ca2+ response, cells expressing GPR40; read-out: hGPR40 EC50
Description: FDSS-based Intracellular Calcium Assay
Compounds are dissolved in DMSO and diluted to desired concentrations with assay buffer and added to the cells as 3× solution (20 μL per well). Run fluorescence/luminescence reader FDSS (Hamamatsu) to read intracellular Ca^2+ response.

human GPR40 [2] = target: T1, human GPR40; assay: GPR40 IP-One HTRF assay in HEK293/GPR40 inducible cell lines; type: cell-based; design: expressed in transfected cells; conditions: HEK293 cells, tetracycline-inducible human GPR40, IP-One HTRF; read-out: hGPR40 IP1 EC50
Description: GPR40 IP-One HTRF Assays in HEK293/GPR40 Inducible Cell Lines
Human, mouse and rat GPR40-mediated intracellular IP-One HTRF assays were established using human embryonic kidney HEK293 cells stably transfected with a tetracycline-inducible human, mouse or rat GPR40 receptor. Cells were routinely cultured in growth medium containing DMEM (Gibco Cat. #:12430-047), 10% qualified FBS (Sigma, Cat. #: F2442), 200 μg/mL hygromycin (Invitrogen, Cat. #: 16087-010) and 1.5 μg/mL blasticidin (Invitrogen, Cat. # R210-01). About 12-15 million cells were passed into a T175 tissue culture flask (BD Falcon 353112) with growth medium and incubated for 16-18 hours (overnight) at 370 C with 5% CO2. The next day, assay medium was exchanged with growth medium containing 1000 ng/mL of tetracycline (Fluka Analytical, Cat. #87128) to induce GPR40 expression for 18-24 hours at […] incubator with 5% CO2. After induction, the cells were washed with PBS (Gibco, Cat. #14190-036) and detached with Cell Stripper (Cellgro, Cat. #25-056-CL). 10-20 mL growth medium were added to the flask and cells were collected in 50 mL tubes (Falcon, Cat.#:352098) and spun at 1000 RPM for 5 minutes. Culture medium was aspirated and the cells were resuspended in 10 mL of 1×IP-One Stimulation Buffer from the Cisbio IP-One kit (Cisbio, Cat. #62IPAPEJ). The cells were diluted to 1.4×10^6 cells/mL in Stimulation Buffer.
Test compounds were 3-fold, 11-point serially diluted in DMSO in a REMP assay plate (Matrix Cat. #: 4307) by BioCel (Agilent). The compounds were transferred into an Echo plate (LABCYTE, Cat. #: LP-0200) and 20 nL of diluted compounds were transferred to an assay plate (proxi-plate from Perkin Elmer, Cat. #6008289) by Echo acoustic nano dispenser (LABCYTE, model ECHO550). 14 μL of the diluted cells were then added to the assay plate by Thermo (SN 836 330) Combi Drop and incubated at room temperature for 45 minutes. Then 3 μL of IP1 coupled to dye D2 from the Cisbio IP-One kit were added to the assay plate followed by 3 μL of Lumi4TM-Tb cryptate K from the kit. The plate was further incubated at room for 1 hour before reading on the Envision (Perkin Elmer Model2101) with an HTRF protocol. Activation data for the test compound over a range of concentrations was plotted as percentage activation of the test compound (100%=maximum response). After correcting for background [(sample read-mean of low control)/(mean of high control−mean of low control)] (low control is DMSO without any compound), EC50 values were determined. The EC50 is defined as the concentration of test compound which produces 50% of the maximal response and was quantified using the 4 parameter logistic equation to fit the data.

T1 sequence (O14842 whole entry): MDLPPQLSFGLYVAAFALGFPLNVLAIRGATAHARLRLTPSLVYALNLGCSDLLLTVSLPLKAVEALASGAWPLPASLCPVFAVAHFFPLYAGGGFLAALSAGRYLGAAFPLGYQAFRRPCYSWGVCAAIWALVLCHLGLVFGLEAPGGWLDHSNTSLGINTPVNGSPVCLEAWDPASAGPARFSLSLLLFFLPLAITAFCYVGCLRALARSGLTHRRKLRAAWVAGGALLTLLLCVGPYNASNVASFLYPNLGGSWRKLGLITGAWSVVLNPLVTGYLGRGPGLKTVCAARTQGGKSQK

| SMILES | EC50 (human GPR40 [1]) [nM] | EC50 (human GPR40 [2]) [nM] |
| --- | --- | --- |
| CCOc1ccc(F)c(N2CC[C@@H](Oc3ccc(N4N=C(c5ccc(S(C)(=O)=O)cc5)[C@@H](C)[C@@H]4CC(=O)O)cc3)[C@H](C)C2)c1 [Example 98, 2-((4S,5S)-1-(4-(((3R,4R)-1-(5-ethoxy-2-fluorophenyl)-3-methylpiperidin-4-yl)oxy)phenyl)-4-methyl-3-(4-(methylsulfonyl)phenyl)-4,5-dihydro-1H-pyrazol-5-yl)acetic acid] | 83 | 25 |
| COc1cc(N2CC[C@@H](Oc3ccc(N4N=C(C(F)(F)F)[C@@H](C)[C@@H]4CC(=O)O)cc3)[C@H](CC#N)C2)c(Cl)cn1 [Example B2, 2-((4S,5S)-1-(4-(((3R,4R)-1-(5-chloro-2-methoxypyridin-4-yl)-3-(cyanomethyl)piperidin-4-yl)oxy)phenyl)-4-methyl-3-(trifluoromethyl)-4,5-dihydro-1H-pyrazol-5-yl)acetic acid] | 586 | 362 |
| C[C@@H]1C(C(F)(F)F)=NN(c2ccc(OC3CCN(c4cc(O)ccc4F)CC3)cc2)[C@H]1CC(=O)O [Example 102, 2-((4S,5S)-1-(4-((1-(2-fluoro-5-hydroxyphenyl)piperidin-4-yl)oxy)phenyl)-4-methyl-3-(trifluoromethyl)-4,5-dihydro-1H-pyrazol-5-yl)acetic acid] |  | 131 |
| COc1cccc(N2CCC(Cc3ccc(N4N=C(c5ccc(F)cc5)[C@@H](C)[C@@H]4CC(=O)O)cc3)CC2)c1 [Example 101, 2-((4S,5S)-3-(4-fluorophenyl)-1-(4-((1-(3-methoxyphenyl)piperidin-4-yl)methyl)phenyl)-4-methyl-4,5-dihydro-1H-pyrazol-5-yl)acetic acid] | 281 | 40 |
| CCOc1ccc(F)c(N2CCC(Cc3ccc(N4N=C(C(F)(F)F)[C@@H](C)[C@@H]4CC(=O)O)cc3)C(C)C2)c1 (single isomer, unassigned) [Example 3 (Isomer 1)] | 3220 |  |
| C[C@@H]1C(C(F)(F)F)=NN(c2ccc(OC3CCN(C(=O)OCc4ccccc4)CC3)cc2)[C@H]1CC(=O)O [Example 14, 2-((4S,5S)-1-(4-((1-((benzyloxy)carbonyl)piperidin-4-yl)oxy)phenyl)-4-methyl-3-(trifluoromethyl)-4,5-dihydro-1H-pyrazol-5-yl)acetic acid] | 4270 |  |
| COc1ccc(F)c(N2CCC(Cc3ccc(N4N=C(C(F)(F)F)[C@@H](C)[C@@H]4CC(=O)O)cc3)CC2)c1 [Example 100, 2-((4S,5S)-1-(4-((1-(2-fluoro-5-methoxyphenyl)piperidin-4-yl)methyl)phenyl)-4-methyl-3-(trifluoromethyl)-4,5-dihydro-1H-pyrazol-5-yl)acetic acid] | 266 |  |
| C[C@@H]1C(C(F)(F)F)=NN(c2ccc(OC3CCN(c4ccc(C(F)(F)F)cn4)CC3)cc2)[C@H]1CC(=O)O [Example 6, 2-((4S,5S)-4-methyl-3-(trifluoromethyl)-1-(4-((1-(5-(trifluoromethyl)pyridin-2-yl)piperidin-4-yl)oxy)phenyl)-4,5-dihydro-1H-pyrazol-5-yl)acetic acid] | 7520 |  |
| CCOc1ccc(F)c(N2CCC(Oc3ccc(N4N=C(C(F)(F)F)[C@@H](C)[C@@H]4CC(=O)O)cc3)C(Cc3ccccc3)C2)c1 (single isomer, unassigned) [Example 28 (Isomer 1)] | 132 |  |
| C[C@@H]1C(C(F)(F)F)=NN(c2ccc(OC3CCN(c4cc5c(cc4Cl)OCCO5)CC3)cc2)[C@H]1CC(=O)O [Example B15, 2-((4S,5S)-1-(4-((1-(7-Chloro-2,3-dihydrobenzo[b][1,4]dioxin-6-yl)piperidin-4-yl)oxy)phenyl)-4-methyl-3-(trifluoromethyl)-4,5-dihydro-1H-pyrazol-5-yl)acetic acid] | 325 |  |
| Cc1ccccc1S(=O)(=O)N1CCC(Oc2ccc(N3N=C(C(F)(F)F)[C@@H](C)[C@@H]3CC(=O)O)cc2)CC1 [Example B27, 2-((4S,5S)-4-Methyl-1-(4-((1-(o-tolylsulfonyl)piperidin-4-yl)oxy)phenyl)-3-(trifluoromethyl)-4,5-dihydro-1H-pyrazol-5-yl)acetic acid] | 4850 |  |
| COc1ccnc(N2CCC(Oc3ccc(N4N=C(C(F)(F)F)[C@@H](C)[C@@H]4CC(=O)O)cc3)CC2)n1 [Example B28, 2-((4S,5S)-1-(4-((1-(4-methoxypyrimidin-2-yl)piperidin-4-yl)oxy)phenyl)-4-methyl-3-(trifluoromethyl)-4,5-dihydro-1H-pyrazol-5-yl)acetic acid] | 5270 |  |
| COc1cc(N2CCC(Oc3ccc(N4N=C(C(F)(F)F)[C@@H](C)[C@@H]4CC(=O)O)cc3)C3(CC3)C2)c(Cl)cn1 (stereo partly drawn) [Example B37, 2-((4S,5S)-1-(4-((5-(5-chloro-2-methoxypyridin-4-yl)-5-azaspiro[2.5]octan-8-yl)oxy)phenyl)-4-methyl-3-(trifluoromethyl)-4,5-dihydro-1H-pyrazol-5-yl)acetic acid] | 774 |  |
| CCOc1ccc(F)c(N2CCC(Oc3ccc(N4N=C(C(F)(F)F)[C@@H](C)[C@@H]4CC(=O)O)cc3)C(OC)C2)c1 (single isomer, unassigned) [Example 31 (Isomer 1)] | 473 | 13 |
| COCC1CN(c2cc(OC)ncc2Cl)CCC1Oc1ccc(N2N=C(C(F)(F)F)[C@@H](C)[C@@H]2CC(=O)O)cc1 (single isomer, unassigned) [Example B3, Isomer 2] | 768 |  |
| CCOc1ccc(F)c(N2CCC(Oc3ccc(N4N=C(C(F)(F)F)[C@@H](C)[C@@H]4CC(=O)O)cc3)C(Cc3ccccc3)C2)c1 (single isomer, unassigned) [Example 28 (Isomer 2)] | 1320 | 230 |
| COc1ccc(F)c(N2CC(COc3ccc(N4N=C(C(F)(F)F)[C@@H](C)[C@@H]4CC(=O)O)cc3)C2)c1 [Example B35, 2-((4S,5S)-1-(4-((1-(2-fluoro-5-methoxyphenyl)azetidin-3-yl)methoxy)phenyl)-4-methyl-3-(trifluoromethyl)-4,5-dihydro-1H-pyrazol-5-yl)acetic acid] | 4760 |  |
| Cc1nc(C)c(N2CCC(Oc3ccc(N4N=C(C(F)(F)F)[C@@H](C)[C@@H]4CC(=O)O)cc3)CC2)s1 [Example B16, 2-((4S,5S)-1-(4-((1-(2,4-Dimethylthiazol-5-yl)piperidin-4-yl)oxy)phenyl)-4-methyl-3-(trifluoromethyl)-4,5-dihydro-1H-pyrazol-5-yl)acetic acid] | 1100 |  |
| C[C@@H]1C(C(F)(F)F)=NN(c2ccc(OC3CCN(c4cc(-c5ncco5)ccc4F)CC3)cc2)[C@H]1CC(=O)O [Example B17, 2-((4S,5S)-1-(4-((1-(2-Fluoro-5-(oxazol-2-yl)phenyl)piperidin-4-yl)oxy)phenyl)-4-methyl-3-(trifluoromethyl)-4,5-dihydro-1H-pyrazol-5-yl)acetic acid] | 2490 |  |
| COc1cccc(N2CC(COc3ccc(N4N=C(C(F)(F)F)[C@@H](C)[C@@H]4CC(=O)O)cc3)C2)c1 [Example B32, 2-((4S,5S)-1-(4-((1-(3-Methoxyphenyl)azetidin-3-yl)methoxy)phenyl)-4-methyl-3-(trifluoromethyl)-4,5-dihydro-1H-pyrazol-5-yl)acetic acid] | 1090 |  |
| COc1cc(N2CC(CCc3ccc(N4N=C(C(F)(F)F)[C@@H](C)[C@@H]4CC(=O)O)cc3)C2)c(Cl)cn1 [Example B36, 2-((4S,5S)-1-(4-(2-(1-(5-chloro-2-methoxypyridin-4-yl)azetidin-3-yl)ethyl)phenyl)-4-methyl-3-(trifluoromethyl)-4,5-dihydro-1H-pyrazol-5-yl)acetic acid] | 591 |  |
| COc1cc(N2CCC(Oc3ccc(N4N=C(C(F)(F)F)[C@@H](C)[C@@H]4CC(=O)O)cn3)C(C)C2)c(Cl)cn1 (single isomer, unassigned) [Example 103 Isomer 2] | 96 | 43 |
